In patent US20150231236A1, “METHODS FOR TREATING PATIENTS WITH HYPERCHOLESTEROLEMIA THAT IS NOT ADEQUATELY CONTROLLED BY MODERATE-DOSE STATIN THERAPY” (Regeneron Pharmaceuticals, Inc., priority 2014, published 2015):

Tests used:
[1] = system: patients with hypercholesterolemia at high CV risk not adequately controlled with rosuvastatin (10 mg or 20 mg); experiment: Example 3: randomized, double-blind trial, lipid efficacy of mAb316P add-on to rosuvastatin vs EZE add-on or rosuvastatin dose doubling; type: in vivo, human; details: for Proportion of Patients Reaching LDL-C goal (%) / LDL-C W24 % change from baseline, LS mean (SE): week 24; for Proportion of Patients Reaching LDL-C goal (%): LDL-C <70 mg/dL very high risk or <100 mg/dL high risk; for LDL-C W24 % change from baseline, LS mean (SE): ITT population, treatment arm as labelled
Experimental: The present study was a randomized, double-blind, active-comparator, parallel-group study in patients at high CV risk with non-FH or heFH who are not adequately controlled with rosuvastatin (10 mg or 20 mg) with or without other lipid-modifying therapy (LMT) (excluding EZE). The study design is illustrated in FIG. 2. Patients who entered the study were taking either rosuvastatin 10 mg or rosuvastatin 20 mg. The former patients were randomized to 1 of 3 treatment arms (arms 1 to 3); the latter patients were randomized to 1 of 3 treatment arms (arms 4 to 6). The treatment arms are as follows:
(B) a double-blind treatment period of 24 weeks. […] The patient/caregiver administered subsequent injections outside of the clinic according to the dosing schedule. […] The last dose of daily oral study drugs was administered at week 24.
The first injection of study drug was administered at the clinical site, as soon as possible after the patient was randomized into the study. The patient was monitored at the clinical site for at least 30 minutes following the first injection. The patient/caregiver administered subsequent injections outside of the clinic, according to the dosing schedule.
(§1) The primary efficacy endpoint was the percent change in calculated LDL-C from baseline to week 24, which is defined as: 100× (calculated LDL-C value at week 24−calculated LDL-C value at baseline)/calculated LDL-C value at baseline. The baseline calculated LDL-C value was the last LDL-C level obtained before the first double-blind study drug injection. The calculated LDL-C at week 24 was the LDL-C level obtained within the week 24 analysis window and during the main efficacy period. The main efficacy period is defined as the time from the first double-blind study drug injection up to 21 days after the last double-blind study drug injection or up to the upper limit of the week 24 analysis window, whichever comes first.
Total-C, HDL-C, TG, ApoB, ApoA-1, and Lp(a) were directly measured by a central laboratory. LDL-C was calculated using the Friedewald formula. […] Non-HDL-C was calculated by subtracting HDL-C from the total-C. Ratio ApoB/ApoA-1 was calculated.
For clarification, the ITT analysis is defined for patients in the ITT population and includes all endpoint assessments in an analysis window, regardless of study treatment dosing status (i.e. includes post-treatment assessments). The on-treatment analysis is defined for patients in the mITT population and includes all endpoint assessments from the first double-blind study drug (capsule or injection, whichever comes first) up to 21 days after the last double-blind study drug injection or 3 days after the last capsule intake, whichever comes first (i.e. includes assessments in the efficacy treatment period).

[2] = system: patients with hypercholesterolemia at high CV risk not adequately controlled with atorvastatin (20 mg or 40 mg); experiment: Example 2: randomized, double-blind trial, lipid efficacy of mAb316P add-on to atorvastatin vs EZE add-on, atorvastatin dose doubling or switch to rosuvastatin; type: in vivo, human; details: for reduced LDL-C levels by: week 24, add-on mAb316P
Experimental: The present study was a randomized, double-blind, active-comparator, parallel-group study in patients at high CV risk with non-FH or heFH who are not adequately controlled with atorvastatin (20 mg or 40 mg) with or without other lipid-modifying therapy (LMT) (excluding EZE). The study design is illustrated in FIG. 1. Patients who entered the study were taking either atorvastatin 20 mg or atorvastatin 40 mg. The former patients were randomized to 1 of 3 treatment arms (arms 1 to 3); the latter patients were randomized to 1 of 4 treatment arms (arms 4 to 7). The treatment arms are as follows:
(1) mAb316P+atorvastatin 20 mg+placebo-EZE; (2) Placebo-mAb316P+atorvastatin 40 mg+placebo-EZE; and (3) Placebo-mAb316P+atorvastatin 20 mg+EZE 10 mg.
(4) mAb316P+atorvastatin 40 mg+placebo-EZE; (5) Placebo-mAb316P+atorvastatin 80 mg+placebo-EZE; (6). Placebo-mAb316P+rosuvastatin 40 mg+placebo-EZE; and (7) Placebo-mAb316P+atorvastatin 40 mg+EZE 10 mg.
(B) a double-blind treatment period of 24 weeks. Each patient received a SC injection Q2W (mAb316P or placebo-mAb316P) and was administered (or instructed to take) 2 oral blinded medications daily (a statin [atorvastatin or rosuvastatin] and EZE or placebo-EZE). The first injection of mAb316P or placebo-mAb316P was administered at the clinical site on day 1, after study assessments were completed, and as soon as possible after the patient was randomized into the study. The patient/caregiver administered subsequent injections outside of the clinic according to the dosing schedule. On days where the clinic study visit coincided with dosing, the dose of study drugs (injectable and oral) were administered after all study assessments had been performed and all laboratory samples collected. The last dose of mAb316P or placebo-mAb316P was administered at week 22. The last dose of daily oral study drugs was administered at week 24. At week 12, based on their baseline CV risk, certain patients randomized to mAb316P in a blinded manner, had their dose increased as follows:
Each patient received a subcutaneous (SC) injection once every two weeks (Q2W) (mAb316P or placebo-mAb316P) and took 2 oral blinded medications daily (a statin [atorvastatin or rosuvastatin] and EZE or placebo-EZE).
The injectable study treatment was a single SC injection of 1 mL for a 75 mg or 150 mg dose of mAb316P or placebo-mAb316P provided in an auto-injector, administered in the abdomen, thigh, or outer area of the upper arm. The first injection of study drug was administered at the clinical site, as soon as possible after the patient was randomized into the study. The patient was monitored at the clinical site for at least 30 minutes following the first injection. The patient/caregiver administered subsequent injections outside of the clinic, according to the dosing schedule. On days where the clinic study visit coincided with dosing, the dose of study drug was administered after all study assessments have been performed and all laboratory samples collected.
The dose of mAb316P was increased, in a blinded manner, from 75 mg to 150 mg SC Q2W, starting at week 12, based on baseline CV risk in the following circumstances:
as §1, with “24 will be” for “24 was”, “period was” for “period is”
Total-C, HDL-C, TG, ApoB, ApoA-1, and Lp (a) were directly measured by a central laboratory. […]

[3] = system: patients with hypercholesterolemia at high CV risk not adequately controlled with rosuvastatin (10 mg or 20 mg); experiment: Example 3: safety, treatment-emergent adverse events in pooled treatment groups; details: Safety Population; pooled treatment groups
[4] = system: patients with hypercholesterolemia at high CV risk not adequately controlled with atorvastatin (20 mg or 40 mg); experiment: Example 2: safety, treatment-emergent adverse events in pooled treatment groups; details: Safety Population, pooled treatment groups
Experimental: For the pooled data, three treatment groups are formed by combining treatment arms regardless of the atorvastatin doses as follows:
(2) EZE treatment group: pooling EZE+atorva 20 mg arm and EZE+atorva 40 mg arm;

[5] = Week 4, baseline rosuvastatin 20 mg
[6] = Week 8, baseline rosuvastatin 20 mg
[7] = Week 12, baseline rosuvastatin 20 mg
[8] = Week 16, baseline rosuvastatin 20 mg
[9] = Week 24, baseline rosuvastatin 20 mg
[10] = Week 4, baseline rosuvastatin 10 mg
[11] = Week 8, baseline rosuvastatin 10 mg
[12] = Week 12, baseline rosuvastatin 10 mg
[13] = Week 16, baseline rosuvastatin 10 mg
[14] = Week 24, baseline rosuvastatin 10 mg

O=C1[C@H](CC[C@H](O)c2ccc(F)cc2)[C@@H](c2ccc(O)cc2)N1c1ccc(F)cc1 [EZE, ezetimibe, reference compound]
Proportion of Patients Reaching LDL-C goal (%) ([1]; Baseline Rosuvastatin 10 mg): 57.2%
Proportion of Patients Reaching LDL-C goal (%) ([1]; Baseline Rosuvastatin 20 mg): 52.2%
proportion of patients who reached LDL-C level of <70 mg/dL (1.81 mmol/L) at Week 24 ([1]; baseline rosuvastatin 10 mg regimen): 43.1%
proportion of patients who reached LDL-C level of <70 mg/dL (1.81 mmol/L) at Week 24 ([1]; baseline rosuvastatin 20 mg regimen): 43.6%
LDL-C reductions observed ([2]; across atorvastatin 20 mg and 40 mg regimens, ezetimibe add-on groups, atorvastatin dose increase groups): 20.5-22.6%
reduced LDL-C levels by ([2]; atorvastatin 20 mg regimen, add-on ezetimibe or doubling of atorvastatin dose): 20.5%
reduced LDL-C levels by ([2]; atorvastatin 40 mg regimen, add-on ezetimibe, doubling of atorvastatin dose or switch to rosuvastatin 40 mg): 22.6%
General Allergic TEAEs [3]: 2 (2.0%) patients (%)
SOC General disorders and administration site conditions [3]: 8 (7.9%) patients (%)
SOC Psychiatric disorders [3]: 4 (4.0%) patients (%)
SOC Respiratory, thoracic and mediastinal disorders [3]: 2 (2.0%) patients (%)
SOC Skin and subcutaneous tissue disorders [3]: 5 (5.0%) patients (%)
TEAEs [3]: 54 (53.5%) patients (%)
Treatment-emergent SAEs [3]: 8 (7.9%) patients (%)
Treatment-emergent cardiovascular events adjudicated positively [3]: 1 (1.0%) patients (%)
Treatment-emergent neurocognitive disorders [3]: 1 (1.0%) patients (%)
Treatment-emergent neurologic disorders [3]: 3 (3.0%) patients (%)
cough [3]: 0 patients (%)
discontinued study treatment early due to a treatment emergent adverse event [3]: 8 (7.9%) patients (%)
injection site reactions (ISRs) [3]: 0 patients (%)
General Allergic TEAEs (SMQ Hypersensitivity) [4]: 5 (5.0%) patients (%)
SOC Injury, poisoning and procedural complications [4]: 12 (11.9%) patients (%)
SOC Musculoskeletal and connective tissue disorders [4]: 13 (12.9%) patients (%)
SOC Neoplasms benign, malignant and unspecified (incl cysts and polyps) [4]: 0 patients (%)
SOC Nervous system disorders [4]: 6 (5.9%) patients (%)
TEAEs [4]: 65 (64.4%) patients (%)
Treatment-emergent SAEs [4]: 7 (6.9%) patients (%)
Treatment-emergent injection site reactions (ISRs) [4]: 3 (3.0%) patients (%)
Treatment-emergent neurologic disorders [4]: 1 (1.0%) patients (%)
discontinued study treatment early due to a treatment emergent adverse event (TEAE) [4]: 4 (4.0%) patients (%)
patient deaths [4]: Two
Treatment-emergent cardiovascular events adjudicated positively ([4]; ischemia driven coronary revascularization procedure): 1 (1.0%) patients (%)

mAb316P + RSV 20: treatment arm: mAb316P 75/150 mg Q2W + rosuvastatin 20 mg daily
Proportion of Patients Reaching LDL-C goal (%) ([1]; Baseline Rosuvastatin 20 mg): 66.7%
Calculated LDL-C LS mean (SE) Value ([1]; Baseline, baseline rosuvastatin 20 mg): 118.1 (4.5) mg/dL
LDL-C W24 % change from baseline, LS mean (SE) [1]: −36.3%
Calculated LDL-C LS mean (SE) Value [1, 5]: 69.9 (3.4) mg/dL
Calculated LDL-C LS mean (SE), % Change from Baseline [1, 5]: −39.6 (5.2) %
Calculated LDL-C LS mean (SE), Change from Baseline [1, 5]: −47.1 (3.4)
Calculated LDL-C LS mean (SE) Value [1, 6]: 67.4 (4.3) mg/dL
Calculated LDL-C LS mean (SE), % Change from Baseline [1, 6]: −40.6 (5.7) %
Calculated LDL-C LS mean (SE), Change from Baseline [1, 6]: −49.6 (4.3)
Calculated LDL-C LS mean (SE) Value [1, 7]: 76.1 (4.2) mg/dL
Calculated LDL-C LS mean (SE), % Change from Baseline [1, 7]: −32.3 (5.2) %
Calculated LDL-C LS mean (SE), Change from Baseline [1, 7]: −41.0 (4.2)
Calculated LDL-C LS mean (SE) Value [1, 8]: 64.5 (4.8) mg/dL
Calculated LDL-C LS mean (SE), % Change from Baseline [1, 8]: −44.8 (6.2) %
Calculated LDL-C LS mean (SE), Change from Baseline [1, 8]: −52.6 (4.8)
Calculated LDL-C LS mean (SE) Value [1, 9]: 73.5 (5.8) mg/dL
Calculated LDL-C LS mean (SE), % Change from Baseline [1, 9]: −36.3 (7.1) %
Calculated LDL-C LS mean (SE), Change from Baseline [1, 9]: −43.5 (5.8)

mAb316P + RSV 10: treatment arm: mAb316P 75/150 mg Q2W + rosuvastatin 10 mg daily
Proportion of Patients Reaching LDL-C goal (%) ([1]; Baseline Rosuvastatin 10 mg): 84.9%
Calculated LDL-C LS mean (SE) Value ([1]; Baseline, baseline rosuvastatin 10 mg): 107.8 (3.8) mg/dL
LDL-C W24 % change from baseline, LS mean (SE) [1]: −50.6%
Calculated LDL-C LS mean (SE) Value [1, 10]: 49.9 (3.6) mg/dL
Calculated LDL-C LS mean (SE), % Change from Baseline [1, 10]: −53.1 (3.2) %
Calculated LDL-C LS mean (SE), Change from Baseline [1, 10]: −55.3 (3.6)
Calculated LDL-C LS mean (SE) Value [1, 11]: 49.4 (4.3) mg/dL
Calculated LDL-C LS mean (SE), % Change from Baseline [1, 11]: −53.8 (3.8) %
Calculated LDL-C LS mean (SE), Change from Baseline [1, 11]: −55.9 (4.3)
Calculated LDL-C LS mean (SE) Value [1, 12]: 53.9 (4.1) mg/dL
Calculated LDL-C LS mean (SE), % Change from Baseline [1, 12]: −49.6 (4.1) %
Calculated LDL-C LS mean (SE), Change from Baseline [1, 12]: −51.3 (4.1)
Calculated LDL-C LS mean (SE) Value [1, 13]: 49.2 (4.7) mg/dL
Calculated LDL-C LS mean (SE), % Change from Baseline [1, 13]: −54.1 (4.7) %
Calculated LDL-C LS mean (SE), Change from Baseline [1, 13]: −56.1 (4.7)
Calculated LDL-C LS mean (SE) Value [1, 14]: 53.0 (4.3) mg/dL
Calculated LDL-C LS mean (SE), % Change from Baseline [1, 14]: −50.6 (4.2) %
Calculated LDL-C LS mean (SE), Change from Baseline [1, 14]: −52.2 (4.3)
